Source: patent publication US20250255792A1, “Methods of Using a Small Molecule Chemical Compound to Reduce the Appearance of Rhytids and Wrinkles” (BirchBioMed Inc., priority 2022, published 2025)
Entries after “also recorded” stand apart in the source; their conditions may differ.

Tests used:
[1] = system: rabbit ear hypertrophic scarring model; conditions: topical application to skin tissue; cited from earlier work
MMP-1 = conditions: dermal fibroblasts; cited from earlier work
[2] = biological target: T1, aryl hydrocarbon receptor (AhR) (Homo sapiens, UniProt P35869); conditions: cited from earlier work
T1 sequence (P35869 11-848): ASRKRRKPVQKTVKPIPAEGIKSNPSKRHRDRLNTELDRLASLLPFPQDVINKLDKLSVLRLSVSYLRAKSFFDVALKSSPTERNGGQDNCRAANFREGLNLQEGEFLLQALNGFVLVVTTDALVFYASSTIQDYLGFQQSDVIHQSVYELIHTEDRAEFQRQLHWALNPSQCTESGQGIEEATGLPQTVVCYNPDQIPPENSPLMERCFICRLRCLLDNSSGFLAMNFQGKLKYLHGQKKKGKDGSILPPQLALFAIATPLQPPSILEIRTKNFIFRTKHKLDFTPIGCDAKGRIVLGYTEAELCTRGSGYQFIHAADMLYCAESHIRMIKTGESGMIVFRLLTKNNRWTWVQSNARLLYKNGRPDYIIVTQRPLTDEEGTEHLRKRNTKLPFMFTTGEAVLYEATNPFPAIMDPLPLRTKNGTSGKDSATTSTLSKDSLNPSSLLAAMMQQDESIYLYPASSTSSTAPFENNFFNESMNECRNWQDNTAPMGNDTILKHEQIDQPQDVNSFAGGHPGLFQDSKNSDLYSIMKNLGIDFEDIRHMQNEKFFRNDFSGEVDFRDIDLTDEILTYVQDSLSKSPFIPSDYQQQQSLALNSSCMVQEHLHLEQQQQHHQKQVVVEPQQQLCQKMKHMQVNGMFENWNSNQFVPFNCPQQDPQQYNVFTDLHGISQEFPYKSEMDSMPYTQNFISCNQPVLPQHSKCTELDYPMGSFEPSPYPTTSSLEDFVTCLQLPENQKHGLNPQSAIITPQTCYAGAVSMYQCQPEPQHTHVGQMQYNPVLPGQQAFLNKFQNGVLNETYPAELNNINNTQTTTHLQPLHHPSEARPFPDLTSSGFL

collagen 1 = conditions: dermal fibroblasts; cited from earlier work
fibronectin = conditions: dermal fibroblasts; cited from earlier work
MMP-3 = conditions: dermal fibroblasts; cited from earlier work
[3] = system: rhytids and wrinkles on the face; assay: Topical use of 0.5% kynurenic acid cream on facial rhytids and wrinkles (self-reported, visual inspection); format: in vivo, human; conditions: person, approx. 3 mg per application
Excerpt: (§1) Initial dermatological effects can be followed by visual inspection of the site.
as §1

[4] = system: UVB-induced wrinkle formation; conditions: animal model (Kim, 2022); cited from earlier work

| Molecule | MMP-1 relative to controls [1] | collagen relative to controls [1] | MMP-1 expression (MMP-1) | AhR agonist / antagonist activity [2] | collagen 1 expression (collagen 1) | fibronectin expression (fibronectin) | MMP-3 expression (MMP-3) | visibility of rhytids and wrinkles (user-reported) ([3]; topical cream 0.5% kynurenic acid by weight once a day, approx. 80 micrograms per square cm, after a 2-month period) | appearance and visibility of rhytids and wrinkles (subject-reported) ([3]; topical cream 0.5% kynurenic acid by weight twice daily, approx. 60 micrograms per square cm, approx. two-month period) | UVB-induced wrinkle formation [4] |
| --- | --- | --- | --- | --- | --- | --- | --- | --- | --- | --- |
| Nc1ccccc1C(=O)CC(N)C(=O)O (racemic) [kynurenine] | increased | decreased | increase MMP production | AhR agonists | suppress collagen production | – | – | – | – | – |
| O=C(O)c1cc(=O)c2ccccc2[nH]1 [kynurenic acid] | – | – | increase expression; also recorded: increase MMP production; also recorded: upregulate | – | downregulate; also recorded: suppress collagen production | downregulate | increase expression; also recorded: upregulate | less visible and less noticeable | perceptible and noticeable reduction | – |
| Nc1nc2ncc(CNc3ccc(C(=O)N[C@@H](CCC(=O)O)C(=O)O)cc3)nc2c(=O)[nH]1 [folic acid] | – | – | – | AhR antagonists | – | – | – | – | – | helped reduce; also recorded: ameliorated |
| vitamin B12 | – | – | – | AhR antagonists | – | – | – | – | – | helped reduce; also recorded: ameliorated |
